Read-outs that look alike come from different tables or passages of the source. Values belong to the compound of their own block, whether it stands above or below them.
Tests used:
[1] = target: T1, ASBT (Homo sapiens, UniProt Q12908); assay: Transport inhibition and recovery assay (inhibitor washout) in ASBT-HEK293 cells; type: cell-based; settings: 3 μM inhibitor 5 min; for ASBT inhibition pattern after inhibitor washout and inhibitor-free incubation: recovery time up to 240 min
T1 construct: stably transfected with the full open reading frames of human NTCP, ASBT, SOAT, OATP1B1, OATP1B3, OATP2B1, and murine Asbt (mAsbt); expressed in transfected cells; host or cells: HEK293 (Flp-In), stably transfected, tetracycline-induced
T1 sequence (Q12908 1-348): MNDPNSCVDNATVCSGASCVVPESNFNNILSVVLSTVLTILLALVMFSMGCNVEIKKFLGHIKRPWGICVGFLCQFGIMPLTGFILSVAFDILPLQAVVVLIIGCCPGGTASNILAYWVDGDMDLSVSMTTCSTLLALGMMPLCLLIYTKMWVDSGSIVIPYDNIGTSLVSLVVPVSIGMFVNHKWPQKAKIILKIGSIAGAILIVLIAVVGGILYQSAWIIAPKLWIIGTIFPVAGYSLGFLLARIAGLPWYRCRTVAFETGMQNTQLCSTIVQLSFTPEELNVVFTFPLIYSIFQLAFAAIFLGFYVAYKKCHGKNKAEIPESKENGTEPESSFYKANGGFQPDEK
Experimental: HEK293 cells stably expressing ASBT were seeded onto poly-L-lysine-coated 96-well plates, induced with 1 μg/ml tetracycline, and grown to confluence over 72 h at 37°C. Non-carrier-expressing HEK293 cells were used as control. Then, cells were washed with tempered (37°C) PBS and equilibrated for 5 min with STB. […] After inhibitor preincubation, cells were washed with tempered (37°C) PBS and further incubated in inhibitor-free DMEM (Thermo Fisher Scientific) for 30, 60, 120, or 240 min at 37°C. […] Finally, cell associated radioactivity was determined using the MicroBeta2 liquid scintillation counter (Revvity). For each inhibitor, the mean values from noncarrier-expressing HEK293 cells were set to 0% and transport measurements in the absence of inhibitor (solvent control) were set to 100%.
In the second setup, the inhibitor was thoroughly washed out after the preincubation phase and cells were placed on inhibitor-free medium for different time intervals of 0–240 min (indicated by “recovery time” in Fig. 7A).

[2] = tested on: OATP1B1; settings: cited from earlier work; for IC50: read-out: IC50 OATP1B1 inhibition

- ASBT inhibition pattern after inhibitor washout and inhibitor-free incubation [1]: intermediate inhibition pattern
Compound: CCCCC1(CCCC)CN(c2ccccc2)c2cc(SC)c(OCC(=O)N[C@@H](C(=O)NCC(=O)O)c3ccccc3)cc2S(=O)(=O)C1 [elobixibat]
- IC50 ([2]; in vitro studies, ref PMDA Goofice Report on the Deliberation Results): 258 nM

- ASBT inhibition pattern after inhibitor washout and inhibitor-free incubation [1]: retained full ASBT uptake inhibition
Compound: CCCCC1(CCCC)CS(=O)(=O)c2ccc(N(C)C)cc2[C@@H](c2ccc(OCc3ccc(C[N+]45CCN(CC4)CC5)cc3)cc2)[C@H]1O [maralixibat]
- OATP1B1 inhibition (in words) ([2]; in vitro, ref FDA NDA 214662 Livmarli): In vitro, maralixibat did not inhibit the transporters OATP1B1 and OATP1B3.

- ASBT inhibition pattern after inhibitor washout and inhibitor-free incubation [1]: retained full ASBT uptake inhibition
Compound: CCCCC1(CCCC)CN(c2ccccc2)c2cc(SC)c(OCC(=O)N[C@@H](C(=O)N[C@@H](CC)C(=O)O)c3ccc(O)cc3)cc2S(=O)(=O)N1 [odevixibat]
- IC50 ([2]; in vitro studies, ref FDA NDA 215498 BYLVAY): 308 nM
- OATP1B1 inhibition (in words) ([2]; ref EMA EPAR Product Information Bylvay): Odevixibat does not inhibit OATP1B1 and OATP1B3.

- ASBT transport activity recovered directly after inhibitor washout ([1]; 0 min recovery): about 37%
- ASBT recovery after washout and 30 min in inhibitor-free medium ([1]; 30 min recovery): mostly recovered ASBT
- ASBT inhibition pattern after inhibitor washout and inhibitor-free incubation [1]: quick and full recovery
Compound: CCCC[C@]1(CC)CS(=O)(=O)c2cc(CNC(CC(=O)O)CC(=O)O)c(OC)cc2[C@@H](c2ccccc2)N1 [linerixibat]
- Substrate of OATP1B1 [2]: is a substrate
- IC50 ([2]; ref 65 Zamek-Gliszczynski et al. (2021)): 2690 nM

- ASBT inhibition pattern after inhibitor washout and inhibitor-free incubation [1]: intermediate inhibition pattern
Compound: CCCCC1(CCCC)CS(=O)(=O)c2ccc(N(C)C)cc2[C@@H](c2ccc(OCCCC[N+]34CCN(CC3)CC4)cc2)[C@H]1O [SC-435]

— publication PMC12596218 (Journal of Lipid Research, 2025)
